Laboratory results as given in patent US8188059B2, “Compounds and methods for modulating expression of GCGR” (Isis Pharmaceuticals, Inc., priority 2006, dated 2012).
Strand notation (5' to 3'): a small letter for the sugar, then the base; units joined by * are phosphorothioate-linked, units joined directly phosphodiester-linked; [ ] holds rarer units or linkages, { } end groups; capitals alone tell only the bases. [PALM-N] = nucleoside bearing a 2'-(butylacetamido)-palmitamide (C16 palmitic acid) substituent (N: the base); e = 2'-O-(2-methoxyethyl) (MOE); l = locked nucleic acid (LNA); [5mC] = 5-methylcytosine; d = 2'-deoxy (DNA)

Legend:
[1] = test system: ApoB mRNA; assay: ApoB mRNA in liver of Balb/c mice, palmitic acid conjugates, single i.p. dose, with ED50 (Example 30, Table 95); format: in vivo, mouse; conditions: for % Inhib: Balb/c mice, about 48 hours after dose, relative to saline-treated controls
Method: 0.4, and 0.16 umol/kg. Each dose group consisted of four animals. A 5-10-5 MOE gapmer was used for a control treatment. Mice were sacrificed approximately 48 hours following the final dose. Liver tissue was collected for RNA isolation, and blood was collected for serum chemistry analyses. ApoB mRNA levels were measured by real-time PCR as described herein. ApoB mRNA levels were normalized to RNA levels as determined by RIBOGREEN, and are presented in Table 95 as percent inhibition relative to ApoB mRNA levels in saline-treated control animals.
At the 2.5 umol/kg dose, ApoB inhibition by the short antisense compounds was greater than observed with a 5-10-5 MOE gapmer at an equivalent dose. […] Triglycerides were reduced at the 2.5 and […] doses of ISIS 387462 and ISIS 391872.

[2] = test system: mouse SGLT2 mRNA; assay: Mouse SGLT2 mRNA levels in kidney, additional 1-10-1 and 2-8-2 MOE gapmers, Balb/c mice (Example 15, Table 68); format: in vivo
Method: 1-10-1 and 2-8-2 MOE gapmer short antisense compounds were designed to target different regions of the mouse SGLT2 RNA but have complementarity across species. […] All cytidine residues are 5-methylcytidines.
The short antisense compounds were analyzed for their effect on mouse SGLT2 mRNA levels in vivo. Data was taken from three experiments in which male 6-week old Balb/c mice were dosed twice per week for three weeks with 0.5, 0.1, or 0.02 umol/kg of either a 1-10-1 or 2-8-2 MOE gapmer given by intraperitoneal injection. Mice were sacrificed 48 hours following last administration and evaluated for SGLT2 levels in kidney. Target levels were determined by RT, real-time PCR as described by other examples herein. PCR results were normalized to an internal ISIS control.

[3] = Plasma glucose in ZDF rats, once a week for twelve weeks (Example 16, Table 71); format: in vivo, rat
Method: (§1) ISIS 388625, 388626 and control oligo ISIS 388628 were analyzed for their effect on ZDF rat plasma glucose levels and HbA1c. The leptin receptor deficient Zucker diabetic fatty (ZDF) rat is a useful model for the investigation of type 2 diabetes. Diabetes develops spontaneously in these male rats at ages 8-10 weeks, and is associated with hyperphagia, polyuria, polydipsia, and impaired weight gain, symptoms which parallel the clinical symptoms of diabetes (Phillips M S, et al., 1996, Nat Genet. 13, 18-19). Six week old ZDF rats were injected intraperitoneally with short antisense compound at a dose of 400 nM/kg once a week for twelve weeks. Data are illustrated in Tables 71 and 72.

[4] = HbA1c status in ZDF rats (Example 16, Table 72); format: in vivo, rat
Method: as §1

[5] = compared to PBS and control treated animals

## 391871 (antisense [PALM-G]*eG*dT*dA*dC*dA*dT*dG*dG*dA*dA*dG*eT*e[5mC]) [compound 391871]
[1]; single i.p. dose 0.16 umol/kg
  % Inhib: 0%
[1]; single i.p. dose 0.4 umol/kg
  % Inhib: 5%
[1]; single i.p. dose 1.0 umol/kg
  % Inhib: 18%

## 391872 (antisense [PALM-G]*lG*dT*dA*dC*dA*dT*dG*dG*dA*dA*dG*lT*l[5mC]) [compound 391872]
[1]; single i.p. dose 0.16 umol/kg
  % Inhib: 18%
[1]; single i.p. dose 0.4 umol/kg
  % Inhib: 50%
[1]; single i.p. dose 1.0 umol/kg
  % Inhib: 92%

## ISIS 388626: SGLT2; GGCATGAGCTTC 2-8-2 MOE (antisense eG*eG*d[5mC]*dA*dT*dG*dA*dG*d[5mC]*dT*eT*e[5mC])
[2]; 0.02 umol/kg i.p. twice per week for three weeks
  % change in SGLT2 expression relative to saline: −45%
[2]; 0.1 umol/kg i.p. twice per week for three weeks
  % change in SGLT2 expression relative to saline: −60%
[2]; 0.5 umol/kg i.p. twice per week for three weeks
  % change in SGLT2 expression relative to saline: −80%
[3]; Day 10, 400 nM/kg i.p. once a week for twelve weeks
  Plasma glucose levels: 434.7 mg/dL
[3]; Day 40, 400 nM/kg i.p. once a week for twelve weeks
  Plasma glucose levels: 300.5 mg/dL
[3]; Day 55, 400 nM/kg i.p. once a week for twelve weeks
  Plasma glucose levels: 219.8 mg/dL
[3]; Day 66, 400 nM/kg i.p. once a week for twelve weeks
  Plasma glucose levels: 379.8 mg/dL
[3]; [5]
  Plasma glucose levels: significantly reduced
[4]; 400 nM/kg i.p. once a week for twelve weeks, Day 40, p < 0.001
  Percentage HbA1c on specific dates, Day 40: 6.6%
[4]; 400 nM/kg i.p. once a week for twelve weeks, Day 55, p < 0.001
  Percentage HbA1c on specific dates, Day 55: 5.9%
[4]; 400 nM/kg i.p. once a week for twelve weeks, Day 68, p < 0.001
  Percentage HbA1c on specific dates, Day 68: 4.0%
[4]; [5]
  HbA1C: significantly reduced

## ISIS 391871: ApoB; GGTACATGGAAGTC 1-1-10-2 2′-(butylacetomido)-palmitamide/MOE/MOE Unmodified cytosines in gap (antisense [PALM-G]*eG*dT*dA*dC*dA*dT*dG*dG*dA*dA*dG*eT*e[5mC])
[1]; single i.p. injection
  estimated ED50: 13.1 mg/kg
